Assay type in all cases: nucleic-acid assay
Assay [1] relates to Nucleic Acid. The assay is described as follows: DNA hybridizing activity at single stranded DNA assessed as thermal stability of duplexes formed between compound and complimentary ssDNA by measuring melting temperature at 4 uM in presence of 10 mM pH 7.2 sodium phosphate buffer containing 100 mM NaCl by UV based melting experiment.
The test system of assay [2] is Nucleic Acid. The assay is described as follows: DNA hybridizing activity at single stranded DNA assessed as thermal stability of duplexes formed between compound and complimentary ssDNA by measuring change in melting temperature at 4 uM in presence of 10 mM pH 7.2 sodium phosphate buffer containing 100 mM NaCl by UV based melting experiment relative to untreated control.

Assay [3] deals with Nucleic Acid. The assay is described as follows: DNA hybridizing activity at single stranded RNA assessed as thermal stability of duplexes formed between compound and complimentary ssRNA by measuring melting temperature at 4 uM in presence of 10 mM pH 7.2 sodium phosphate buffer containing 100 mM NaCl by UV based melting experiment.
In assay [4] the test system is Nucleic Acid. Kind of assay: DNA hybridizing activity at single stranded RNA assessed as thermal stability of duplexes formed between compound and complimentary ssRNA by measuring change in melting temperature at 4 uM in presence of 10 mM pH 7.2 sodium phosphate buffer containing 100 mM NaCl by UV based melting experiment relative to untreated control.
In assay [5] the test system is Nucleic Acid. The assay is described as follows: DNA hybridizing activity at 22 bp double stranded DNA assessed as thermal stability of duplexes formed between compound and complimentary dsDNA by measuring melting temperature at 1.5 uM in presence of 7 mM pH 5.5 sodium phosphate buffer containing 140 mM K, 10 mM MgCl2 by UV based melting experiment.
Assay [6] concerns Nucleic Acid. Kind of assay: DNA hybridizing activity at 22 bp double stranded DNA assessed as thermal stability of duplexes formed between compound and complimentary dsDNA by measuring change in melting temperature at 1.5 uM in presence of 7 mM pH 5.5 sodium phosphate buffer containing 140 mM K, 10 mM MgCl2 by UV based melting experiment.

Drawing on ChEMBL document CHEMBL2057188, “Hybridizing ability and nuclease resistance profile of backbone modified cationic phosphorothioate oligonucleotides” (Bioorg Med Chem, 2012), this text covers Tm and ΔTm for six molecules.

On to `Cc1cn([C@H]2C[C@H](OP(=O)(O)OC[C@H]3O[C@@H](n4cc(C)c(=O)[nH]c4=O)C[C@@H]3OP(=O)(O)OC[C@H]3O[C@@H](n4cc(C)c(=O)[nH]c4=O)C[C@@H]3O[P@](=O)(OC[C@H]3O[C@@H](n4cc(C)c(=O)[nH]c4=O)C[C@@H]3OP(=O)(O)OC[C@H]3O[C@@H](n4cc(C)c(=O)[nH]c4=O)C[C@@H]3OP(=O)(O)OC[C@H]3O[C@@H](n4cc(C)c(=O)[nH]c4=O)C[C@@H]3OP(=O)(O)OC[C@H]3O[C@@H](n4ccc(N)nc4=O)C[C@@H]3OP(=O)(O)OC[C@H]3O[C@@H](n4ccc(N)nc4=O)C[C@@H]3OP(=O)(O)OC[C@H]3O[C@@H](n4ccc(N)nc4=O)C[C@@H]3OP(=O)(O)O)SCCCCCCN)[C@@H](COP(=O)(O)O[C@H]3C[C@H](n4ccc(N)nc4=O)O[C@@H]3COP(=O)(O)O[C@H]3C[C@H](n4ccc(N)nc4=O)O[C@@H]3COP(=O)(O)O[C@H]3C[C@H](n4ccc(N)nc4=O)O[C@@H]3CO)O2)c(=O)[nH]c1=O`, for which the melting temperature (Tm) in assay [1] was found to be 37 °C; in assay [3] it was 41 °C; in assay [5], 23 °C. Moreover, the shift in melting temperature (ΔTm) in assay [2] is -5 °C; in assay [4], -5 °C; in assay [6], -3 °C.

Consider `Cc1cn([C@H]2C[C@H](OP(=O)(O)OC[C@H]3O[C@@H](n4cc(C)c(=O)[nH]c4=O)C[C@@H]3OP(=O)(O)OC[C@H]3O[C@@H](n4cc(C)c(=O)[nH]c4=O)C[C@@H]3O[P@@](=O)(OC[C@H]3O[C@@H](n4cc(C)c(=O)[nH]c4=O)C[C@@H]3OP(=O)(O)OC[C@H]3O[C@@H](n4cc(C)c(=O)[nH]c4=O)C[C@@H]3OP(=O)(O)OC[C@H]3O[C@@H](n4cc(C)c(=O)[nH]c4=O)C[C@@H]3OP(=O)(O)OC[C@H]3O[C@@H](n4ccc(N)nc4=O)C[C@@H]3OP(=O)(O)OC[C@H]3O[C@@H](n4ccc(N)nc4=O)C[C@@H]3OP(=O)(O)OC[C@H]3O[C@@H](n4ccc(N)nc4=O)C[C@@H]3OP(=O)(O)O)SCCCN)[C@@H](COP(=O)(O)O[C@H]3C[C@H](n4ccc(N)nc4=O)O[C@@H]3COP(=O)(O)O[C@H]3C[C@H](n4ccc(N)nc4=O)O[C@@H]3COP(=O)(O)O[C@H]3C[C@H](n4ccc(N)nc4=O)O[C@@H]3CO)O2)c(=O)[nH]c1=O`, for which the midpoint of thermal melting (Tm) amounted to 43 °C in assay [1], 46 °C in assay [3] and 29 °C in assay [5]. The ΔTm in assay [2] came out at 1 °C; in assay [4], 0 °C; in assay [6] it was 4 °C.

As to `Cc1cn([C@H]2C[C@H](OP(=O)(O)OC[C@H]3O[C@@H](n4cc(C)c(=O)[nH]c4=O)C[C@@H]3OP(=O)(O)OC[C@H]3O[C@@H](n4cc(C)c(=O)[nH]c4=O)C[C@@H]3O[P@](=O)(OC[C@H]3O[C@@H](n4cc(C)c(=O)[nH]c4=O)C[C@@H]3OP(=O)(O)OC[C@H]3O[C@@H](n4cc(C)c(=O)[nH]c4=O)C[C@@H]3OP(=O)(O)OC[C@H]3O[C@@H](n4cc(C)c(=O)[nH]c4=O)C[C@@H]3OP(=O)(O)OC[C@H]3O[C@@H](n4ccc(N)nc4=O)C[C@@H]3OP(=O)(O)OC[C@H]3O[C@@H](n4ccc(N)nc4=O)C[C@@H]3OP(=O)(O)OC[C@H]3O[C@@H](n4ccc(N)nc4=O)C[C@@H]3OP(=O)(O)O)SCCNCCCN)[C@@H](COP(=O)(O)O[C@H]3C[C@H](n4ccc(N)nc4=O)O[C@@H]3COP(=O)(O)O[C@H]3C[C@H](n4ccc(N)nc4=O)O[C@@H]3COP(=O)(O)O[C@H]3C[C@H](n4ccc(N)nc4=O)O[C@@H]3CO)O2)c(=O)[nH]c1=O`, the results for the midpoint of thermal melting (Tm) in assay [1], in assay [3] and in assay [5] were 40 °C, 44 °C and 25 °C, respectively. Also, the thermal shift (ΔTm) in assay [2] was -2 °C; in assay [4] it was -2 °C; in assay [6] it was -1 °C.

As for `Cc1cn([C@H]2C[C@H](OP(=O)(O)O)[C@@H](COP(=O)(O)O[C@H]3C[C@H](n4ccc(N)nc4=O)O[C@@H]3COP(=O)(O)O[C@H]3C[C@H](n4ccc(N)nc4=O)O[C@@H]3COP(=O)(O)O[C@H]3C[C@H](n4cc(C)c(=O)[nH]c4=O)O[C@@H]3COP(=O)(O)O[C@H]3C[C@H](n4cc(C)c(=O)[nH]c4=O)O[C@@H]3COP(=O)(O)O[C@H]3C[C@H](n4cc(C)c(=O)[nH]c4=O)O[C@@H]3COP(=O)(O)O[C@H]3C[C@H](n4cc(C)c(=O)[nH]c4=O)O[C@@H]3COP(=O)(O)O[C@H]3C[C@H](n4cc(C)c(=O)[nH]c4=O)O[C@@H]3COP(=O)(O)O[C@H]3C[C@H](n4cc(C)c(=O)[nH]c4=O)O[C@@H]3COP(=O)(O)O[C@H]3C[C@H](n4ccc(N)nc4=O)O[C@@H]3COP(=O)(O)O[C@H]3C[C@H](n4ccc(N)nc4=O)O[C@@H]3COP(=O)(O)O[C@H]3C[C@H](n4ccc(N)nc4=O)O[C@@H]3CO)O2)c(=O)[nH]c1=O`, the Tm in assay [1] was determined as 44 °C; in assay [3], 48 °C; in assay [5], 29 °C.

Take `Cc1cn([C@H]2C[C@H](OP(=O)(O)OC[C@H]3O[C@@H](n4cc(C)c(=O)[nH]c4=O)C[C@@H]3OP(=O)(O)OC[C@H]3O[C@@H](n4cc(C)c(=O)[nH]c4=O)C[C@@H]3O[P@@](=O)(S)OC[C@H]3O[C@@H](n4cc(C)c(=O)[nH]c4=O)C[C@@H]3OP(=O)(O)OC[C@H]3O[C@@H](n4cc(C)c(=O)[nH]c4=O)C[C@@H]3OP(=O)(O)OC[C@H]3O[C@@H](n4cc(C)c(=O)[nH]c4=O)C[C@@H]3OP(=O)(O)OC[C@H]3O[C@@H](n4ccc(N)nc4=O)C[C@@H]3OP(=O)(O)OC[C@H]3O[C@@H](n4ccc(N)nc4=O)C[C@@H]3OP(=O)(O)OC[C@H]3O[C@@H](n4ccc(N)nc4=O)C[C@@H]3OP(=O)(O)O)[C@@H](COP(=O)(O)O[C@H]3C[C@H](n4ccc(N)nc4=O)O[C@@H]3COP(=O)(O)O[C@H]3C[C@H](n4ccc(N)nc4=O)O[C@@H]3COP(=O)(O)O[C@H]3C[C@H](n4ccc(N)nc4=O)O[C@@H]3CO)O2)c(=O)[nH]c1=O`: the Tm worked out at 42 °C in assay [1], 46 °C in assay [3] and 26 °C in assay [5].

As for `Cc1cn([C@H]2C[C@H](OP(=O)(O)OC[C@H]3O[C@@H](n4cc(C)c(=O)[nH]c4=O)C[C@@H]3OP(=O)(O)OC[C@H]3O[C@@H](n4cc(C)c(=O)[nH]c4=O)C[C@@H]3O[P@](=O)(S)OC[C@H]3O[C@@H](n4cc(C)c(=O)[nH]c4=O)C[C@@H]3OP(=O)(O)OC[C@H]3O[C@@H](n4cc(C)c(=O)[nH]c4=O)C[C@@H]3OP(=O)(O)OC[C@H]3O[C@@H](n4cc(C)c(=O)[nH]c4=O)C[C@@H]3OP(=O)(O)OC[C@H]3O[C@@H](n4ccc(N)nc4=O)C[C@@H]3OP(=O)(O)OC[C@H]3O[C@@H](n4ccc(N)nc4=O)C[C@@H]3OP(=O)(O)OC[C@H]3O[C@@H](n4ccc(N)nc4=O)C[C@@H]3OP(=O)(O)O)[C@@H](COP(=O)(O)O[C@H]3C[C@H](n4ccc(N)nc4=O)O[C@@H]3COP(=O)(O)O[C@H]3C[C@H](n4ccc(N)nc4=O)O[C@@H]3COP(=O)(O)O[C@H]3C[C@H](n4ccc(N)nc4=O)O[C@@H]3CO)O2)c(=O)[nH]c1=O`, the Tm in assay [1] was 42 °C; in assay [3], 46 °C; in assay [5] it was 25 °C.

What is called Tm is the temperature at the midpoint of the melting transition. As usually defined, the ΔTm is the shift of the melting midpoint relative to a reference.
